# Tests used:
# SN12C = test: NCI60 five-dose screen; type: cell-based; conditions: Homo sapiens, renal cancer; for CC50: read-out: LC50 (the source's name)
# HL-60 (TB) = test: NCI60 five-dose screen; type: cell-based; conditions: Homo sapiens, leukemia; for CC50: read-out: LC50 (the source's name)
# MOLT-4 = test: NCI60 five-dose screen; type: cell-based; conditions: Homo sapiens, MOLT-4, leukemia; for CC50: read-out: LC50 (the source's name)
# Human CYP19 (aromatase) = biological target: T1, Human CYP19 (aromatase) (Homo sapiens, UniProt P11511); test: Aromatase inhibition assay (DBF fluorometric substrate); type: biochemical; conditions: active defined as IC50 < 12.5 µM
# T1 construct: purchased GENTEST, Woburn, MA 456260; host or cells: baculovirus/insect cells
# T1 sequence (P11511 1-503): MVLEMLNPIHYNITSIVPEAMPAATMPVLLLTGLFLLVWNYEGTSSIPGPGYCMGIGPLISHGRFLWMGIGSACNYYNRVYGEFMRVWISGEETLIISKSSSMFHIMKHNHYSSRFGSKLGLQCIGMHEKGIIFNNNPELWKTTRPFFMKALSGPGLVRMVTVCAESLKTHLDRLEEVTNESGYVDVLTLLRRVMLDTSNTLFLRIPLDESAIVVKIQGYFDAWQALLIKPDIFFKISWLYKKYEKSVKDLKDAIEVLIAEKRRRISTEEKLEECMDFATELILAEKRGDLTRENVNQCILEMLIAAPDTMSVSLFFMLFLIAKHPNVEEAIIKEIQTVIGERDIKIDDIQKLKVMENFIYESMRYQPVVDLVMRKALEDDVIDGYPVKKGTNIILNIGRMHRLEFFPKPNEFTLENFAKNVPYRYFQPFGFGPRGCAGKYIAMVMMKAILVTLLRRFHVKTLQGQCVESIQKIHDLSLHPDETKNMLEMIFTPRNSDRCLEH
# Outline: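 Supersomes expressing human CYP19 plus oxidoreductase (baculovirus/insect cell) with fluorometric substrate DBF; cofactor mixture pre-incubated 10 min at 37 °C, reaction run 30 min at 37 °C, stopped with NaOH. Fluorescence read at ex 490/em 530 nm.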
# NCI/ADR-RES = test: NCI60 five-dose screen; type: cell-based, human; conditions: Homo sapiens, ovarian cancer; for CC50: read-out: LC50 (the source's name)
# MDA-MB-231/ATCC = test: NCI60 five-dose screen; type: cell-based; conditions: Homo sapiens, breast cancer; for CC50: read-out: LC50 (the source's name)
# UO-31 = test: NCI60 five-dose screen; type: cell-based; conditions: Homo sapiens, UO-31, renal cancer; for CC50: read-out: LC50 (the source's name)
# NCI-H322M = test: NCI60 five-dose screen; type: cell-based; conditions: Homo sapiens, NSC lung cancer; for CC50: read-out: LC50 (the source's name)
# UACC-257 = test: NCI60 five-dose screen; type: cell-based; conditions: Homo sapiens, UACC-257, melanoma; for CC50: read-out: LC50 (the source's name)
# MDA-MB-468 = test: NCI60 five-dose screen; type: cell-based; conditions: Homo sapiens, MDA-MB-468, breast cancer; for CC50: read-out: LC50 (the source's name)
# SF-295 = test: NCI60 five-dose screen; type: cell-based; conditions: Homo sapiens, SF-295, CNS cancer; for CC50: read-out: LC50 (the source's name)
# U251 = test: NCI60 five-dose screen; type: cell-based; conditions: Homo sapiens, U-251, U251, CNS cancer; for CC50: read-out: LC50 (the source's name)
# KM12 = test: NCI60 five-dose screen; type: cell-based; conditions: Homo sapiens, KM12, colon cancer; for CC50: read-out: LC50 (the source's name)
# T-47D = test: NCI60 five-dose screen; type: cell-based; conditions: Homo sapiens, T47D, breast cancer; for CC50: read-out: LC50 (the source's name)
# SK-MEL-28 = test: NCI60 five-dose screen; type: cell-based; conditions: Homo sapiens, SK-MEL-28, melanoma; for CC50: read-out: LC50 (the source's name)
# MALME-3M = test: NCI60 five-dose screen; type: cell-based; conditions: Homo sapiens, melanoma; for CC50: read-out: LC50 (the source's name)
# SK-OV-3 = test: NCI60 five-dose screen; type: cell-based; conditions: Homo sapiens, SK-OV-3, ovarian cancer; for CC50: read-out: LC50 (the source's name)
# NCI-H522 = test: NCI60 five-dose screen; type: cell-based; conditions: Homo sapiens, NCI-H522, NSC lung cancer; for CC50: read-out: LC50 (the source's name)
# TK-10 = test: NCI60 five-dose screen; type: cell-based; conditions: Homo sapiens, TK-10, renal cancer; for CC50: read-out: LC50 (the source's name)
# SNB-19 = test: NCI60 five-dose screen; type: cell-based; conditions: Homo sapiens, SNB-19, CNS cancer; for CC50: read-out: LC50 (the source's name)
# HCC-2998 = test: NCI60 five-dose screen; type: cell-based; conditions: Homo sapiens, HCC-2998, colon cancer; for CC50: read-out: LC50 (the source's name)
# SF-268 = test: NCI60 five-dose screen; type: cell-based; conditions: Homo sapiens, SF-268, CNS cancer; for CC50: read-out: LC50 (the source's name)
# OVCAR-5 = test: NCI60 five-dose screen; type: cell-based; conditions: Homo sapiens, OVCAR-5, ovarian cancer; for CC50: read-out: LC50 (the source's name)
# SW-620 = test: NCI60 five-dose screen; type: cell-based; conditions: Homo sapiens, SW-620, colon cancer; for CC50: read-out: LC50 (the source's name)
# HS 578T = test: NCI60 five-dose screen; type: cell-based; conditions: Homo sapiens, breast cancer; for CC50: read-out: LC50 (the source's name)
# OVCAR-8 = test: NCI60 five-dose screen; type: cell-based; conditions: Homo sapiens, OVCAR-8, ovarian cancer; for CC50: read-out: LC50 (the source's name)
# RPMI-8226 = test: NCI60 five-dose screen; type: cell-based; conditions: Homo sapiens, RPMI-8226, leukemia; for CC50: read-out: LC50 (the source's name)
# CCRF-CEM = test: NCI60 five-dose screen; type: cell-based; conditions: Homo sapiens, leukemia; for CC50: read-out: LC50 (the source's name)
smiles,measurement,setting,value
"O=C(N/N=C/c1cc[nH]c1)c1[nH]c2ccc(Br)cc2c1-c1ccccc1 [Derivative 3b, (E)-N′-((1H-Pyrrol-3-yl)methylene)-5-bromo-3-phenyl-1H-indole-2-carbohydrazide]",GI50,SN12C,1.49 µM
same,CC50,SN12C,37.7 µM
same,GI50,HL-60 (TB),0.598 µM
same,CC50,HL-60 (TB),> 100 µM
same,GI50,MOLT-4,1.52 µM
same,CC50,MOLT-4,> 100 µM
same,IC50,Human CYP19 (aromatase),11 ± 1.3 µM
same,GI50,NCI/ADR-RES,0.636 µM
same,CC50,NCI/ADR-RES,27.1 µM
same,GI50,MDA-MB-231/ATCC,1.62 µM
same,CC50,MDA-MB-231/ATCC,26.4 µM
same,GI50,UO-31,1.66 µM
same,CC50,UO-31,41 µM
same,GI50,NCI-H322M,2.38 µM
same,CC50,NCI-H322M,37.2 µM
same,GI50,UACC-257,8.22 µM
same,CC50,UACC-257,47.8 µM
same,GI50,MDA-MB-468,0.593 µM
same,CC50,MDA-MB-468,24.2 µM
same,GI50,SF-295,1.94 µM
same,CC50,SF-295,33.8 µM
same,GI50,U251,2.08 µM
same,CC50,U251,40.8 µM
same,GI50,KM12,0.996 µM
same,CC50,KM12,37.8 µM
same,GI50,T-47D,3.49 µM
same,CC50,T-47D,> 100 µM
same,GI50,SK-MEL-28,5.75 µM
same,CC50,SK-MEL-28,44.4 µM
same,GI50,MALME-3M,3.46 µM
same,CC50,MALME-3M,48.3 µM
same,GI50,SK-OV-3,5.59 µM
same,CC50,SK-OV-3,71.9 µM
same,GI50,NCI-H522,0.925 µM
same,CC50,NCI-H522,24 µM
same,GI50,TK-10,11.1 µM
same,CC50,TK-10,58 µM
same,GI50,SNB-19,2.55 µM
same,CC50,SNB-19,39.8 µM
same,GI50,HCC-2998,1.55 µM
same,CC50,HCC-2998,32.7 µM
same,GI50,SF-268,2.41 µM
same,CC50,SF-268,59.1 µM
same,GI50,OVCAR-5,1.74 µM
same,CC50,OVCAR-5,38.5 µM
same,GI50,SW-620,0.548 µM
same,CC50,SW-620,49.4 µM
same,GI50,HS 578T,1.31 µM
same,CC50,HS 578T,> 100 µM
same,GI50,OVCAR-8,1.21 µM
same,CC50,OVCAR-8,38.6 µM
same,GI50,RPMI-8226,1.43 µM
same,CC50,RPMI-8226,> 100 µM
same,GI50,CCRF-CEM,0.821 µM
same,CC50,CCRF-CEM,> 100 µM
"CCOC(=O)c1cc(/C=N/NC(=O)c2[nH]c3ccc(Br)cc3c2-c2ccccc2)c[nH]1 [Derivative 3v, Ethyl (E)-4-((2-(5-bromo-3-phenyl-1H-indole-2-carbonyl)hydrazono)methyl)-1H-pyrrole-2-carboxylate]",GI50,SN12C,3.63 µM
same,CC50,SN12C,38.1 µM
same,GI50,HL-60 (TB),4.68 µM
same,CC50,HL-60 (TB),> 100 µM
same,GI50,MOLT-4,3.91 µM
same,CC50,MOLT-4,> 100 µM
same,IC50,Human CYP19 (aromatase),2.5 ± 0.6 µM
same,GI50,NCI/ADR-RES,2.23 µM
same,CC50,NCI/ADR-RES,21.2 µM
same,GI50,MDA-MB-231/ATCC,3.27 µM
same,CC50,MDA-MB-231/ATCC,33.8 µM
same,GI50,UO-31,4.21 µM
same,CC50,UO-31,61.9 µM
same,GI50,NCI-H322M,4.42 µM
same,CC50,NCI-H322M,76.1 µM
same,GI50,UACC-257,11.7 µM
same,CC50,UACC-257,77.8 µM
same,GI50,MDA-MB-468,2.6 µM
same,CC50,MDA-MB-468,34 µM
same,GI50,SF-295,3.04 µM
same,CC50,SF-295,37.2 µM
same,GI50,U251,3.8 µM
same,CC50,U251,37.6 µM
same,GI50,KM12,3.37 µM
same,CC50,KM12,35.5 µM
same,GI50,T-47D,5.88 µM
same,CC50,T-47D,> 100 µM
same,GI50,SK-MEL-28,4.73 µM
same,CC50,SK-MEL-28,48.5 µM
same,GI50,MALME-3M,4.32 µM
same,CC50,MALME-3M,52.8 µM
same,GI50,SK-OV-3,1.31 µM
same,CC50,SK-OV-3,80.3 µM
same,GI50,NCI-H522,2.41 µM
same,CC50,NCI-H522,61.2 µM
same,GI50,TK-10,12.5 µM
same,CC50,TK-10,80.7 µM
same,GI50,SNB-19,4.08 µM
same,CC50,SNB-19,43.4 µM
same,GI50,HCC-2998,4.17 µM
same,CC50,HCC-2998,42.1 µM
same,GI50,SF-268,6.04 µM
same,CC50,SF-268,> 100 µM
same,GI50,OVCAR-5,3.49 µM
same,CC50,OVCAR-5,37.4 µM
same,GI50,SW-620,4.41 µM
same,CC50,SW-620,40.1 µM
same,GI50,HS 578T,3.11 µM
same,CC50,HS 578T,> 100 µM
same,GI50,OVCAR-8,3.65 µM
same,CC50,OVCAR-8,38.5 µM
same,GI50,RPMI-8226,3.84 µM
same,CC50,RPMI-8226,> 100 µM
same,GI50,CCRF-CEM,3.7 µM
same,CC50,CCRF-CEM,> 100 µM
"CCOC(=O)c1ccc(/C=N/NC(=O)c2[nH]c3ccc(Br)cc3c2-c2ccccc2)[nH]1 [Derivative 3i, Ethyl (E)-5-((2-(5-bromo-3-phenyl-1H-indole-2-carbonyl)hydrazono)methyl)-1H-pyrrole-2-carboxylate]",GI50,SN12C,2.86 µM
same,CC50,SN12C,36.2 µM
same,GI50,HL-60 (TB),1.84 µM
same,CC50,HL-60 (TB),> 100 µM
same,GI50,MOLT-4,2.49 µM
same,CC50,MOLT-4,> 100 µM
same,IC50,Human CYP19 (aromatase),2.6 ± 0.8 µM
same,GI50,NCI/ADR-RES,0.897 µM
same,CC50,NCI/ADR-RES,9.2 µM
same,GI50,MDA-MB-231/ATCC,2.63 µM
same,CC50,MDA-MB-231/ATCC,33.2 µM
same,GI50,UO-31,1.48 µM
same,CC50,UO-31,> 100 µM
same,GI50,NCI-H322M,3.3 µM
same,CC50,NCI-H322M,> 100 µM
same,GI50,UACC-257,2.97 µM
same,CC50,UACC-257,87.4 µM
same,GI50,MDA-MB-468,1.63 µM
same,CC50,MDA-MB-468,36.6 µM
same,GI50,SF-295,1.8 µM
same,CC50,SF-295,38.1 µM
same,GI50,U251,2.82 µM
same,CC50,U251,39.4 µM
same,GI50,KM12,2.22 µM
same,CC50,KM12,38 µM
same,GI50,T-47D,4.2 µM
same,CC50,T-47D,> 100 µM
same,GI50,SK-MEL-28,2.65 µM
same,CC50,SK-MEL-28,94.5 µM
same,GI50,MALME-3M,3.83 µM
same,CC50,MALME-3M,54.8 µM
same,GI50,SK-OV-3,4.01 µM
same,CC50,SK-OV-3,> 100 µM
same,GI50,NCI-H522,0.46 µM
same,CC50,NCI-H522,82.2 µM
same,GI50,TK-10,6.92 µM
same,CC50,TK-10,> 100 µM
same,GI50,SNB-19,2.98 µM
same,CC50,SNB-19,62.8 µM
same,GI50,HCC-2998,2.51 µM
same,CC50,HCC-2998,36.4 µM
same,GI50,SF-268,2.68 µM
same,CC50,SF-268,> 100 µM
same,GI50,OVCAR-5,3.43 µM
same,CC50,OVCAR-5,38 µM
same,GI50,SW-620,3.93 µM
same,CC50,SW-620,53.6 µM
same,GI50,HS 578T,1.21 µM
same,CC50,HS 578T,> 100 µM
same,GI50,OVCAR-8,2.49 µM
same,CC50,OVCAR-8,47.6 µM
same,GI50,RPMI-8226,2.28 µM
same,CC50,RPMI-8226,> 100 µM
same,GI50,CCRF-CEM,3.04 µM
same,CC50,CCRF-CEM,> 100 µM
